Test results from patent publication US20230181580A1, “TREATMENT OF PROLIFERATIVE DISEASES OF THE CNS” (AUCENTRA THERAPEUTICS PTY LTD, priority 2020, published 2023).

How the values were obtained:
[1] = target: CDK1/B (Homo sapiens, UniProt P06493); experiment: CDK kinase inhibition assay (radiometric / ADP Glo); type: biochemical
Procedure: (§1) Eurofins Pharma Discovery or Reaction Biology Corporation Kinase Profiler services were used to measure inhibition of CDKs and other kinases by radiometric assay (RIA). Inhibition of CDK4/Cyclin D1, CDK6/Cyclin D3 and CDK9/T1 were also determined in-house using ADP Glo Kinase assays (Promega Corporation, Madison Wis., United States of America). Briefly, the kinase reaction for CDK4/Cyclin D1 and CDK6/Cyclin D3 was performed with kinase reaction buffer ([…] Tris base pH 7.5, 20 mM MgCl2, 0.4 mM DTT), 0.1 mg/ml BSA and RB-CTF substrate (retinoblastoma protein1 C-terminal fraction). For CDK9/CyclinT1, the kinase reaction was performed with standard assay buffer and Kinase Dilution Buffer and RBER-IRStide substrate. Serial dilutions of 1:3 were prepared for test compounds for 10 concentrations (from 10 μM to 0.5 nM). The kinase reactions were started by addition of ATP, incubated for 40 min at 37° C. and then stopped by adding 10 μL of ADP Glo reagent. After incubation at room temperature (RT) in the dark for 40 min, 20 μL of kinase detection reagent was added per well and incubated for 40 min. Luminescence was measured using an EnVision Multilabel plate reader (PerkinElmer, Buckinghamshire, United Kingdom). Positive and negative controls were performed in the presence and absence of CDK kinases, respectively. Half-maximal inhibition (IC50) values were calculated using a 4-parameter logistic non-linear regression model with Graphpad prism (Version 6.0). Apparent inhibition constants (Ki) values were calculated from Km (ATP) and IC50 values for the respective kinases.

[2] = target: CDK2/A (Homo sapiens, UniProt P24941); experiment: as above; type: biochemical
Procedure: as §1

[3] = target: CDK7/H (Homo sapiens, UniProt P50613); experiment: as above; type: biochemical
Sequence of CDK7/H (P50613 whole entry): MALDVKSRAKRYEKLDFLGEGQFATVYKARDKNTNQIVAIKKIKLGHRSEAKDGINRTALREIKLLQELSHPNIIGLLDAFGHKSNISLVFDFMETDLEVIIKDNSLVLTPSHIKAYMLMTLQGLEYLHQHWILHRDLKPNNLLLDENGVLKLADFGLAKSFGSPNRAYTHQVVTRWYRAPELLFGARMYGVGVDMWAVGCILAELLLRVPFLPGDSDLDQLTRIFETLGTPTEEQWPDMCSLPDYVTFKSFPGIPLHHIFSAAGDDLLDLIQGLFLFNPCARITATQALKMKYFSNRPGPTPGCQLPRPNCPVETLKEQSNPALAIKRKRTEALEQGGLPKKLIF
Sequence of CDK7/H (P51946 whole entry partner): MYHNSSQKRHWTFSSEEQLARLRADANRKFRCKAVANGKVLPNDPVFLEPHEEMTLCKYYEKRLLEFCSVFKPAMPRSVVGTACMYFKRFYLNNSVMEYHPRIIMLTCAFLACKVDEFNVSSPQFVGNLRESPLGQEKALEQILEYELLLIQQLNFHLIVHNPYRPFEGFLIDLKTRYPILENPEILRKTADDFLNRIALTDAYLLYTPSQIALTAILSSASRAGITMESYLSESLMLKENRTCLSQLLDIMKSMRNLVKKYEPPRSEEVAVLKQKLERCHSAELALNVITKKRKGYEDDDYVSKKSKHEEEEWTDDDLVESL
Sequence of CDK7/H (P51948 whole entry partner): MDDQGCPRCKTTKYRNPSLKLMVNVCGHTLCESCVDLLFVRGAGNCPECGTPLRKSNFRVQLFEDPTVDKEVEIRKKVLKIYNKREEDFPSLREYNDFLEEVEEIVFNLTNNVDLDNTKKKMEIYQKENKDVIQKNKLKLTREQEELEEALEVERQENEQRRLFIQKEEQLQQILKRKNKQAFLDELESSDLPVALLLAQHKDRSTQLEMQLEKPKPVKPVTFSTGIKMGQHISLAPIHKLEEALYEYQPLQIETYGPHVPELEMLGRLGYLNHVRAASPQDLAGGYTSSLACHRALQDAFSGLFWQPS
Procedure: as §1

[4] = target: CDK9/T1 (Homo sapiens, UniProt P50750); experiment: as above; type: biochemical
Sequence of CDK9/T1 (P50750 whole entry): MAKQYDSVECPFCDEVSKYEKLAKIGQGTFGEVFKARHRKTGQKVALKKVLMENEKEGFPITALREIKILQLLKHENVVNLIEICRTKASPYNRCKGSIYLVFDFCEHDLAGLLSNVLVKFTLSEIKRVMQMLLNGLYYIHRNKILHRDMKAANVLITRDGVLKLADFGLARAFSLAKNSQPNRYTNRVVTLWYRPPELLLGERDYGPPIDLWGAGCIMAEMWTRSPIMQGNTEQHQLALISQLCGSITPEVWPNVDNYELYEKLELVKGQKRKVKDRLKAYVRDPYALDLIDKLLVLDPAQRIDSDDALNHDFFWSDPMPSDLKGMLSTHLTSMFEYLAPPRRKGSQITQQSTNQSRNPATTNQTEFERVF
Sequence of CDK9/T1 (O60563 whole entry partner): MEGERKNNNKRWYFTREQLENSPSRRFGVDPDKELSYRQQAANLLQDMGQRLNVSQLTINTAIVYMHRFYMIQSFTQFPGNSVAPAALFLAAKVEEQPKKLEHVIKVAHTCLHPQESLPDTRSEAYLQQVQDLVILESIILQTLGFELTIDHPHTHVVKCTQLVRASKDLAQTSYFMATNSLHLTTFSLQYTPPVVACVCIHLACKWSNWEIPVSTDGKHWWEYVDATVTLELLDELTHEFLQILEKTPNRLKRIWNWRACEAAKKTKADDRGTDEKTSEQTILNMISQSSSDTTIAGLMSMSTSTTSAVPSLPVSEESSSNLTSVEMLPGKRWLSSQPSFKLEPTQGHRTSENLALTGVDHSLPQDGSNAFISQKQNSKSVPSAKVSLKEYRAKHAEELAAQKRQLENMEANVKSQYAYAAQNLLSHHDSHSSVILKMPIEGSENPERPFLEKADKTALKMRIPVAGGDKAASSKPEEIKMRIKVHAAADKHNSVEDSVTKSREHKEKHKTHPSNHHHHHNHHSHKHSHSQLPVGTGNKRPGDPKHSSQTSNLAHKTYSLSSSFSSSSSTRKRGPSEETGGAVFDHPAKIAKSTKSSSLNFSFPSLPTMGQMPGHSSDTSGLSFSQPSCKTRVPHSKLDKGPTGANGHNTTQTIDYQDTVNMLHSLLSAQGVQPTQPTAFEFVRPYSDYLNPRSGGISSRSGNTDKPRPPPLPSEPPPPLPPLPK
Procedure: as §1

[5] = tested on: PANC1; experiment: MTT proliferation assay, pancreas; type: cell-based; settings: Homo sapiens, PANC-1, 72 h, read-out: Antiproliferative activity GI50 PANC1
From the text: Representative compounds from Example 1, were subjected to standard MTT (3-(4,5-dimethylthiazol-2-yl)-2,5-diphenyltetrazolium bromide) and resazurin assays on solid tumour cell lines (including GBM cell lines) and leukemia cell lines, respectively, as previously reported (Wang S et al., J Med Chem 47:1662-1675, 2004; and Diab S. et al. CheMedChem 9:962-972, 2014).

[6] = tested on: GBM U87 cells; experiment: Annexin V/PI apoptosis assay; type: cell-based; settings: 5 μM, 48 hours, with or without 5 μM TMZ
Procedure: The ability of compound 1 to induce apoptosis in GBM cells was investigated using the annexin V-FITC apoptosis detection kit I (BD Pharmingen Inc.; San Diego, Calif., United States of America) according to the manufacturer's protocol. Cell pellets were washed twice with 1 mL cold PBS and centrifuged at 300×g for 5 mins. Following the removal of supernatants, cell pellets were stained with 100 μL 1× annexin V binding buffer, 3 μL annexin V-FITC and 3 μL propidium iodide staining solution, and incubated in the dark at room temperature for 15 mins. The percentage of apoptic cells was measured by a CytoFLEX flow cytometer.

Sequence of CDK1/B (P06493 whole entry): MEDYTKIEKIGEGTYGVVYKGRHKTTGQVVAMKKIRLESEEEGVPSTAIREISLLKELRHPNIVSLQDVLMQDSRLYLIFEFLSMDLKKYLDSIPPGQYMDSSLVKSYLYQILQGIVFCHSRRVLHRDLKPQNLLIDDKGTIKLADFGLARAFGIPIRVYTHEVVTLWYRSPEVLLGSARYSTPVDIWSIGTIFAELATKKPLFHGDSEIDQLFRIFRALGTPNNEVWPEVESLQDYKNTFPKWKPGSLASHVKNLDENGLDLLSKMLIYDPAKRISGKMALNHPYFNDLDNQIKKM
Sequence of CDK1/B (P14635 whole entry partner): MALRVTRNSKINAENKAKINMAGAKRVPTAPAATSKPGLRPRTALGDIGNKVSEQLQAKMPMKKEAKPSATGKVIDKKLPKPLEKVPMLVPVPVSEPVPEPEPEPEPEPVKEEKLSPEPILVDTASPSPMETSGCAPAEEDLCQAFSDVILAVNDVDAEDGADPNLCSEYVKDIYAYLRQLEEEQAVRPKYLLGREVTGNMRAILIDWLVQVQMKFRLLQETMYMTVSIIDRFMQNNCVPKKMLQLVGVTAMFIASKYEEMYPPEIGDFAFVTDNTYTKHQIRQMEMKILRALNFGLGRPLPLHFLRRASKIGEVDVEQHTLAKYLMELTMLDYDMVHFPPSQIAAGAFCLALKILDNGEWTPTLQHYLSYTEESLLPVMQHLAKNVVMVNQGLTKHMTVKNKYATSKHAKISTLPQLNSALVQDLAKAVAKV

SMILES: CNc1nc(C)c(-c2nc(Nc3ccc(N4CCC(N(C)C)CC4)cn3)ncc2F)s1 [Compound 1, 5-(2-((5-(4-(dimethylamino)piperidin-1-yl)pyridin-2-yl)amino)-5-fluoropyrimidin-4-yl)-N,4-dimethylthiazol-2-amine]
- Ki [1]: > 1000 nM
- Ki [2]: > 1000 nM
- Ki [3]: > 1000 nM
- Ki [4]: > 1000 nM
- GI50 [5]: 1320 nM
- induction of apoptosis (annexin V/PI) [6]: capable of inducing apoptosis in GBM cells to a greater level than the control anti-cancer agent, palbociclib
